Reference: patent US11318137B2, “Quinazoline compounds as modulators of Ras signaling” (VANDERBILT UNIVERSITY, priority 2017, dated 2022)

Legend:
[1] = target: T1, SOS-mediated nucleotide exchange on Ras (Homo sapiens, UniProt Q07889); assay: SOS-mediated nucleotide exchange on Ras (BODIPY-GDP fluorescence); assay type: biochemical; details: Ras loaded with BODIPY-GDP, GTP and SOS added; EC50 from derived exchange rates
T1 sequence (Q07889 1-1333): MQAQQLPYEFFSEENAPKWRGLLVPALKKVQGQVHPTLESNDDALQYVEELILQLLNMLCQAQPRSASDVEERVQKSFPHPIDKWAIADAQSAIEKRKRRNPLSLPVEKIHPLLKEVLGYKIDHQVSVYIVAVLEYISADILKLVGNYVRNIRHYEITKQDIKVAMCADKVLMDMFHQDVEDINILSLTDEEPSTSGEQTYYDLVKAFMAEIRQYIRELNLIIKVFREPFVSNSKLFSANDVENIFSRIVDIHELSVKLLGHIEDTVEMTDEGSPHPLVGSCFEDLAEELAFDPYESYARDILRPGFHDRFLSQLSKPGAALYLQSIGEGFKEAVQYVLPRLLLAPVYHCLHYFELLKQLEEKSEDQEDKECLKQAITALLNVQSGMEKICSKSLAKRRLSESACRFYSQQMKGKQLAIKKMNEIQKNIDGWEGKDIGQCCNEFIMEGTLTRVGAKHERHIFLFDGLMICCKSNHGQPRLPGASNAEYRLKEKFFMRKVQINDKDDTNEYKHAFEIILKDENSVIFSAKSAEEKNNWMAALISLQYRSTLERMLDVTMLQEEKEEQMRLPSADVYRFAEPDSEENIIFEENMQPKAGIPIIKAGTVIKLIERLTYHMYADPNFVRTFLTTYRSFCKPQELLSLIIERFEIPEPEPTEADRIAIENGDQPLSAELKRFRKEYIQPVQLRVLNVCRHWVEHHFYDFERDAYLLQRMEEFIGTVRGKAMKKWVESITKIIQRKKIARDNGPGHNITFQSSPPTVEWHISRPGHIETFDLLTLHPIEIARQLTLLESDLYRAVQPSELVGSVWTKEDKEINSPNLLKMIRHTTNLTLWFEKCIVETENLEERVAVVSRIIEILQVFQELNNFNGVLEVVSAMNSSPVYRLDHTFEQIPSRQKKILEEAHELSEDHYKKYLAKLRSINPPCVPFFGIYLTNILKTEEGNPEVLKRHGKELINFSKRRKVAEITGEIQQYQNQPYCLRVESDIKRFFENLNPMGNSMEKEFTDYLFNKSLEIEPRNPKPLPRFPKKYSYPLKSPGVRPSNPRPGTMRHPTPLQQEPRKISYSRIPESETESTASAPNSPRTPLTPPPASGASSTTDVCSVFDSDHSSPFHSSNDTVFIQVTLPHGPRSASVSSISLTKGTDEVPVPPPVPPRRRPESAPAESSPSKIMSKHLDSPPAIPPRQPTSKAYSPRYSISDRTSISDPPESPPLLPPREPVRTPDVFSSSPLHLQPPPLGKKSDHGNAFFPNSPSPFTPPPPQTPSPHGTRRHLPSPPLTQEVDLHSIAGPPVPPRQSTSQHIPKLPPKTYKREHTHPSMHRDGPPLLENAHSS
In short: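 Compound, then GTP and SOS, were added to buffered Ras preloaded with BODIPY-GDP, and the fluorescence change from labeled GDP being exchanged for GTP was followed over time. Rates came from single-exponential fits, and EC50 from a four-parameter fit of mean rate against compound concentration.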

[2] = target: T2, Son of Sevenless (SOS) (Homo sapiens, UniProt Q07889); assay: Binding to SOS, fluorescence polarization anisotropy (FPA) displacement of FITC-conjugated probe; details: binding affinity calculated from IC50 of FITC-probe displacement, read-out: Binding affinities (binding affinity to SOS)
T2 sequence (Q07889 564-1049 limits assumed): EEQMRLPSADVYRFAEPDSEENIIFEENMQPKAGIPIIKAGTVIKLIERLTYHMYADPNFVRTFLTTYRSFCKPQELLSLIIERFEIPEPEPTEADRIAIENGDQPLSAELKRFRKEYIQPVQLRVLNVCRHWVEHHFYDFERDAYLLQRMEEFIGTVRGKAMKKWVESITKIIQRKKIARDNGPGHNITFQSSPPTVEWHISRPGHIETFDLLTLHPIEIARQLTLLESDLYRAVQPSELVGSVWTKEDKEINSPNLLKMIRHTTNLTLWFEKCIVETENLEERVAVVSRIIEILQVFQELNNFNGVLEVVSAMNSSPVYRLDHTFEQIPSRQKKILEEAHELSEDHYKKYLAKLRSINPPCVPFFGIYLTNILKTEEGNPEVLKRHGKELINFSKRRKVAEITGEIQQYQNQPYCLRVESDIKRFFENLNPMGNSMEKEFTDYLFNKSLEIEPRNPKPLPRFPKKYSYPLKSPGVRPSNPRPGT
Method: Compounds of the present invention were tested for their ability to the Ras guanine exchange factor (GEF) Son of Sevenless (SOS). Binding to SOS was measured using a Fluorescence polarization anisotropy (FPA) assay that assesses the ability of a test compound to displace a fluorescent FITC-conjugated compound. Briefly, the labeled probe compound is incubated with SOS in buffer. Changes in anisotropy indicative of displacement of the labeled probe for a test compound are assessed over a dose range of test compound. Data was analyzed by plotting fluorescence anisotropy values as a function of compound concentration. IC50 values were determined using a four-parameter dose-response (variable slope) and binding affinities were calculated from this IC50 value. This assay is performed in a method analogous to the assay disclosed in: Burns, M. C.; Sun, Q.; Daniels, R. N.; Camper, D. V.; Kennedy, J. P.; Phan, J.; Olejniczak, E. O.; Lee, T.; Waterson, A. G.; Rossanese, O. W.; Fesik, S. W. “Approach for targeting Ras with small molecules that activate SOS-mediated nucleotide exchange” Proc. Natl. Acad. Sci. 2014; 11(9): 3401-3406. PMCID: PMC3948241.

Row | Structure (SMILES) | EC50 [1] | Ki [2]
1 | C[C@@H](Nc1nc(NCc2cccc(Cl)c2F)nc2c(C3=CCNCC3)cccc12)c1cccs1 [Example 133, (R)—N^2-(3-chloro-2-fluorobenzyl)-8-(1,2,3,6-tetrahydropyridin-4-yl)-N^4-(1-(thiophen-2-yl)ethyl)quinazoline-2,4-diamine] | 5 to 30 µM | 1 to 5 µM
2 | CCC(Nc1nc(Nc2ccc(F)c(Cl)c2)nc2ccccc12)C(C)C (centres unmarked) [Example 2, N^2-(3-chloro-4-fluorophenyl)-N^4-(2-methylpentan-3-yl)quinazoline-2,4-diamine] | 1 to 5 µM | > 5 µM
3 | CCOCCc1cccc2c(N[C@H](C)C3CC3)nc(Nc3ccc(F)c(Cl)c3)nc12 [Example 123, (R)—N^2-(3-chloro-4-fluorophenyl)-N^4-(1-cyclopropylethyl)-8-(2-ethoxyethyl)quinazoline-2,4-diamine] | > 30 µM | > 5 µM
4 | C[C@@H](Nc1nc(Nc2cc(F)cc(C#N)c2)nc2ccccc12)C1CC1 [Example 23, (R)-3-((4-((1-cyclopropylethyl)amino)quinazolin-2-yl)amino)-5-fluorobenzonitrile] | 1 to 5 µM | > 5 µM
5 | CCC[C@@H](Nc1nc(Nc2ccc(F)c(Cl)c2)nc2ccccc12)C1CC1 [Example 36, (R)—N^2-(3-chloro-4-fluorophenyl)-N^4-(1-cyclopropylbutyl)quinazoline-2,4-diamine] | 1 to 5 µM | > 5 µM
6 | C[C@@H](Nc1nc(Nc2cc(F)cc(F)c2)nc2ccccc12)c1cccs1 [Example 38, (R)—N^2-(3,5-difluorophenyl)-N^4-(1-(thiophen-2-yl)ethyl)quinazoline-2,4-diamine] | 1 to 5 µM | > 5 µM
7 | C[C@@H](Nc1nc(Nc2ccc(F)c(Cl)c2)nc2ccccc12)C(C)(C)C [Example 40, (R)—N^2-(3-chloro-4-fluorophenyl)-N^4-(3,3-dimethylbutan-2-yl)quinazoline-2,4-diamine] | 1 to 5 µM | > 5 µM
8 | C[C@@H](Nc1nc(NCc2ccc(F)cc2F)nc2ccccc12)C1CC1 [Example 19, (R)—N^4-(1-cyclopropylethyl)-N^2-(2,4-difluorobenzyl)quinazoline-2,4-diamine] | 5 to 30 µM | > 5 µM
9 | Cc1cc(F)cc(Nc2nc(N[C@H](C)c3cccs3)c3cccc(CCN)c3n2)c1 [Example 92, (R)-8-(2-aminoethyl)-N^2-(3-fluoro-5-methylphenyl)-N^4-(1-(thiophen-2-yl)ethyl)quinazoline-2,4-diamine] | 5 to 30 µM | > 5 µM
10 | C[C@@H](Nc1nc(Nc2ccc(F)c(Cl)c2)nc2c(C3=CCNCC3)cccc12)C1CC1 [Example 62, (R)—N^2-(3-chloro-4-fluorophenyl)-N^4-(1-cyclopropylethyl)-8-(1,2,3,6-tetrahydropyridin-4-yl)quinazoline-2,4-diamine] | < 1 µM | 1 to 5 µM
11 | Fc1ccc(Nc2nc(NC(C3CC3)C3CC3)c3ccccc3n2)cc1Cl [Example 21, N^2-(3-chloro-4-fluorophenyl)-N^4-(dicyclopropylmethyl)quinazoline-2,4-diamine] | 1 to 5 µM | > 5 µM
12 | CC[C@@H](Nc1nc(Nc2ccc(F)c(Cl)c2)nc2ccccc12)C1CCC1 [Example 42, (R)—N^2-(3-chloro-4-fluorophenyl)-N^4-(1-cyclobutylpropyl)quinazoline-2,4-diamine] | 1 to 5 µM | > 5 µM
13 | C[C@@H](Nc1nc(Nc2ccc(F)c(Cl)c2)nc2c(NC3CNC3)cccc12)C1CC1 [Example 112, (R)—N^8-(azetidin-3-yl)-N^2-(3-chloro-4-fluorophenyl)-N-(1-cyclopropylethyl)quinazoline-2,4,8-triamine] | 1 to 5 µM | > 5 µM
14 | C[C@@H](Nc1nc(Nc2ccc(F)c(Cl)c2)nc2c(CN)cccc12)c1cccs1 [Example 132, (R)-8-(aminomethyl)-N^2-(3-chloro-4-fluorophenyl)-N^4-(1-(thiophen-2-yl)ethyl)quinazoline-2,4-diamine] | 5 to 30 µM | 1 to 5 µM
15 | C[C@@H](Nc1nc(Nc2ccc(F)c(Cl)c2)nc2c(CC3CNC3)cccc12)C1CC1 [Example 113, (R)-8-(azetidin-3-ylmethyl)-N^2-(3-chloro-4-fluorophenyl)-N^4-(1-cyclopropylethyl)quinazoline-2,4-diamine] | 1 to 5 µM | 1 to 5 µM
16 | C[C@@H](Nc1nc(Nc2ccc(F)c(Cl)c2)nc2c(CCN)cccc12)C1CC1 [Example 60, (R)-8-(2-aminoethyl)-N^2-(3-chloro-4-fluorophenyl)-N^4-(1-cyclopropylethyl)quinazoline-2,4-diamine] | 1 to 5 µM | 1 to 5 µM
17 | C[C@@H](Nc1nc(NCC2CCCCC2)nc2ccccc12)C1CC1 [Example 4, (R)—N^2-(cyclohexylmethyl)-N^4-(1-cyclopropylethyl)quinazoline-2,4-diamine] | 1 to 5 µM | > 5 µM
18 | Cc1cc(CNc2nc(N[C@H](C)C3CC3)c3ccccc3n2)ccc1F [Example 24, (R)—N^4-(1-cyclopropylethyl)-N^2-(4-fluoro-3-methylbenzyl)quinazoline-2,4-diamine] | 1 to 5 µM | > 5 µM
19 | Cc1cc(F)cc(Nc2nc(NC(C3CC3)C3CC3)c3cccc(C4=CCNCC4)c3n2)c1 [Example 108, N^4-(dicyclopropylmethyl)-N^2-(3-fluoro-5-methylphenyl)-8-(1,2,3,6-tetrahydropyridin-4-yl)quinazoline-2,4-diamine] | 1 to 5 µM | 1 to 5 µM
20 | Fc1ccc(CNc2nc(NCc3ccco3)c3ccccc3n2)cc1 [Example 14, N^2-(4-fluorobenzyl)-N^4-(furan-2-ylmethyl)quinazoline-2,4-diamine] | 1 to 5 µM | > 5 µM
21 | CC[C@@H](Nc1nc(NCC2CCCCC2)nc2c(C3=CCNCC3)cccc12)C1CC1 [Example 125, (R)—N^2-(cyclohexylmethyl)-N^4-(1-cyclopropylpropyl)-8-(1,2,3,6-tetrahydropyridin-4-yl)quinazoline-2,4-diamine] | < 1 µM | < 1 µM
22 | NCCc1cccc2c(NC(C3CC3)C3CC3)nc(NCC3CCCCC3)nc12 [Example 74, 8-(2-aminoethyl)-N^2-(cyclohexylmethyl)-N^4-(dicyclopropylmethyl)quinazoline-2,4-diamine] | 1 to 5 µM | 1 to 5 µM
